According to patent US7713965B2, “7-substituted 3-carboxy-oxadiazino-quinolone derivatives, their preparation and their application as anti-bacterials” (Vetoquinol SA, priority 2008, dated 2010):

Row | SMILES | melting point
1 | CN1COc2c(N3CCC(CNc4cnccn4)C3)c(F)cc3c(=O)c(C(=O)O)cn1c23 (stereo not drawn) (hydrate or solvate) [Example 1, 8-fluoro-3-methyl-6-oxo-9-[3-(pyrazin-2-ylaminomethyl)-pyrrolidin-1-yl]-2,3-dihydro-6H-1-oxa-3,3a-diaza-phenalene-5-carboxylic acid] | 238 to 240 °C
2 | CN1COc2c(N3CC[C@@H](n4ccnn4)C3)c(F)cc3c(=O)c(C(=O)O)cn1c23 (hydrate or solvate) | 235 °C (dec.)
3 | Cc1cc(N[C@H]2CCN(c3c(F)cc4c(=O)c(C(=O)O)cn5c4c3OCN5C)C2)on1 (hydrate or solvate) | 255 to 257 °C
4 | Cc1nc(NC2CCN(c3c(F)cc4c(=O)c(C(=O)O)cn5c4c3OCN5C)C2)sc1C (stereo not drawn) (hydrate or solvate) | 266 °C (dec.)
5 | CN1COc2c(N3CC[C@@H](Nc4nccs4)C3)c(F)cc3c(=O)c(C(=O)O)cn1c23 (hydrate or solvate) [Example 19, 8-Fluoro-3-methyl-6-oxo-9-[(R)-3-(thiazol-2-ylamino)-pyrrolidin-1-yl]-2,3-dihydro-6H-1-oxa-3,3a-diaza-phenalene-5-carboxylic acid] | 245 to 250 °C
6 | CN1COc2c(N3CC[C@H](Nc4nccs4)C3)c(F)cc3c(=O)c(C(=O)O)cn1c23 (hydrate or solvate) [Example 18, 8-Fluoro-3-methyl-6-oxo-9-[(S)-3-(thiazol-2-ylamino)-pyrrolidin-1-yl]-2,3dihydro-6H-1-oxa-3,3a-diaza-phenalene-5-carboxylic acid] | 275 °C
7 | CN1n2cc(C(=O)O)c(=O)c3cc(F)c(N4CC[C@@H](Nc5nccs5)C4)c(c32)OC1(C)C (hydrate or solvate) | 235 to 237 °C
8 | Cc1cc(NC2CCN(c3c(F)cc4c(=O)c(C(=O)O)cn5c4c3OCN5C)C2)sn1 (stereo not drawn) (hydrate or solvate) | 265 °C
9 | CN1COc2c(N3CC[C@@H](Nc4cnccn4)C3)c(F)cc3c(=O)c(C(=O)O)cn1c23 (hydrate or solvate) | 255 °C (dec.)
10 | CN1COc2c(N3CCC(Nc4nncs4)C3)c(F)cc3c(=O)c(C(=O)O)cn1c23 (stereo not drawn) (hydrate or solvate) [Example 10, 8-Fluoro-3-methyl-6-oxo-9-[3-([1,3,4]thiadiazol-2-ylamino)-pyrrolidin-1-yl]-2,3-dihydro-6H1-oxa-3,3a-diaza-phenalene-5-carboxylic acid] | 320 °C (dec.)
11 | CN1COc2c(N3CC(N)C(c4nccs4)C3)c(F)cc3c(=O)c(C(=O)O)cn1c23 (stereo not drawn) (hydrate or solvate) | 240 to 245 °C
12 | CN1COc2c(N3CCC(NC(=O)c4ccco4)CC3)c(F)cc3c(=O)c(C(=O)O)cn1c23 (hydrate or solvate) | 293 to 295 °C
13 | CN1COc2c(N3CCC(NC(=O)C(F)(F)F)C3)c(F)cc3c(=O)c(C(=O)O)cn1c23 (stereo not drawn) (hydrate or solvate) [Example 27, 8-Fluoro-3-methyl-6-oxo-9-[3-(2,2,2-trifluoro-acetylamino)-pyrrolidin-1-yl]-2,3-dihydro-6H-1-oxa-3,3a-diaza-phenalene-5-carboxylic acid] | 281 to 283 °C
14 | CN1COc2c(N3CCC(CN(c4cnccn4)c4cnccn4)C3)c(F)cc3c(=O)c(C(=O)O)cn1c23 (stereo not drawn) (hydrate or solvate) | 213 to 215 °C
15 | Cc1csc(NC2CCN(c3c(F)cc4c(=O)c(C(=O)O)cn5c4c3OCN5C)C2)n1 (stereo not drawn) (hydrate or solvate) | 260 °C (dec.)
16 | CN(c1nccs1)[C@@H]1CCN(c2c(F)cc3c(=O)c(C(=O)O)cn4c3c2OCN4C)C1 (hydrate or solvate) | 222 to 224 °C
17 | Cc1cc(N[C@@H]2CCN(c3c(F)cc4c(=O)c(C(=O)O)cn5c4c3OCN5C)C2)on1 (hydrate or solvate) | 255 to 257 °C
18 | CC1Oc2c(N3CC[C@H](NC(=O)C(F)(F)F)C3)ccc3c(=O)c(C(=O)O)cn(c23)N1C (stereo partly drawn) (hydrate or solvate) | 260 °C
